Laboratory results from patent US20200078404A1, “COMBINATION OF A CELL THERAPY AND AN IMMUNOMODULATORY COMPOUND” (Juno Therapeutics, Inc., priority 2017, published 2020).

Columns and labels:
[1] = system: anti-CD19 CAR-expressing T cells; test: Cytokine production after anti-idiotypic antibody stimulation; conditions: anti-idiotypic antibody 0.3-30 μg/ml, 24 hours; Compound 1 100, 1000 nM; lenalidomide 500, 5000 nM
Ikaros = test: Intracellular Ikaros in anti-CD19 CAR-expressing T cells (flow cytometry); assay type: cell-based, human
Method: Cells of the enriched CD4+ and CD8+ compositions were separately activated with anti-CD3/anti-CD28 beads and subjected to lentiviral transduction with a vector encoding an anti-CD19 CAR. […] Transduced populations then were separately incubated in the presence of stimulating reagents for cell expansion.

[2] = system: anti-CD19 CAR-expressing T cells; test: Surface markers after anti-idiotypic antibody stimulation; assay type: cell-based, human
From the text: CAR-expressing T cells were stained for CD3, CD4, CD8 and the surrogate marker for CAR expression, and also for the following markers: CD25, PD-1, and CD69.

[3] = system: anti-CD19 CAR-expressing T cells; test: Cytokine production of anti-CD19 CAR-expressing T cells incubated with K562.CD19 target cells; assay type: cell-based, human
K562.CD19 target cells [4] = test: Serial stimulation with K562.CD19: cytolytic function at day 24; assay type: cell-based, human; conditions: day 24 after serial stimulation
From the text: (§1) Every 3-4 days (start of each new round), the cells were counted.

K562.CD19 target cells [5] = test: Cytolytic function of anti-CD19 CAR-expressing T cells against K562.CD19 target cells; assay type: cell-based, human
Method: K562.CD19 target cells were transduced with NucLight Red to permit their tracking by microscopy. Cytolytic activity was assessed by measuring the loss of viable target cells over a period of five days, as determined by red fluorescent signal (using the IncuCyte® Live Cell Analysis System, Essen Bioscience).

[6] = system: anti-CD19 CAR-expressing T cells; test: Serial stimulation with K562.CD19: surface markers; assay type: cell-based, human
Method: as §1
Expression of select surface markers was assessed on cells at day 4 (i.e., 4 days after the first stimulation) and day 28 (i.e., 4 days after the seventh stimulation). Specifically, harvested cells were analyzed by flow cytometry for CD3, CD4, CD8 and the surrogate marker for CAR expression, and also for the following surface markers: CD69, CD107a, PD-1, CD25, CD62L, CCR7, CD45RO, CD27, and LAG3.

[7] = system: Raji lymphoma tumor cells; test: Raji lymphoma xenograft model, anti-CD19 CAR-expressing cells with Compound 1; assay type: in vivo, mouse; conditions: Compound 1 0.3 mg/kg i.p. daily, Concurrent and Delayed groups, combined with anti-CD19 CAR-expressing cells, vs CAR-expressing cells alone
Method: The anti-tumor efficacy of CAR-expressing T cells in combination with Compound 1 was assessed by monitoring tumors in a tumor xenograft model. […] T cell compositions were generated from three different donors.
NOD.Cg.Prkdc^scidIL2rg^tm1Wjl/SzJ (NSG) mice were injected intravenously (i.v.) with 0.5×10^6 Raji lymphoma tumor cells (an immortalized human B lymphocyte tumor cell line that expresses CD19) that were transfected with firefly luciferase (Raji-ffluc). Tumor engraftment was allowed to occur for 6 days and verified using bioluminescence imaging. On Day 7, mice either received no treatment, or a single intravenous (i.v.) injection of anti-CD19 CAR-expressing cells at a low dose (0.5×10^6 cells) or a high dose (1.0×10^6 cells). […] Tumor burden was assessed by bioluminescence every 10 days. For bioluminescence imaging, mice received intraperitoneal (i.p.) injections of luciferin substrate (CaliperLife Sciences, Hopkinton, Mass.) resuspended in PBS (15 μg/g body weight). The average radiance (p/s/cm^2/sr) was determined.

[8] = system: anti-CD19 CAR-expressing T cells; test: T cell surface markers of anti-CD19 CAR-expressing T cells incubated with K562.CD19; assay type: cell-based, human
[9] = system: anti-CD19 CAR-expressing T cells; test: Serial stimulation with K562.CD19: expansion (cell doublings); assay type: cell-based, human
From the text: as §1

Cc1nc2cccc(N)c2c(=O)n1C1CCC(=O)NC1=O (stereo not drawn) [Compound 1]
IFN-γ, IL-2 and TNF-α production [1]: increased relative to the vehicle control
reduction in Ikaros expression compared to lenalidomide (Ikaros): greater reduction in Ikaros expression
intracellular Ikaros expression (Ikaros; CD4+ and CD8+ anti-CD19 CAR-expressing T cells): concentration-dependent decrease in intracellular Ikaros expression
surface markers CD25 and CD69 ([2]; CD4+ and CD8+ CAR-expressing T cells, day 4, some donors): increase in surface markers CD25 and CD69
expression of PD-1 ([2]; day 4, unchanged or decreased in the other donors): increased in the presence of Compound 1 or lenalidomide in cells generated from at least one donor
cytokine production compared to lenalidomide at equivalent concentrations [3]: greater cytokine production across multiple conditions
cytokine production (IFN-γ, IL-2, TNF-α) ([3]; concentration-dependent, E:T 5:1 and 2.5:1, 24 hours, vs vehicle): increased
cytolytic activity of anti-CD19 CAR-expressing T cells (K562.CD19 target cells [4]): increase the cytolytic activity
cytolytic activity of anti-CD19 CAR-expressing cells (K562.CD19 target cells [5]; 2.5:1 E:T ratio, some donors): slightly reduced cytolytic activity
cytolytic activity of anti-CD19 CAR-expressing T cells (K562.CD19 target cells [5]; 5:1 E:T ratio, high concentrations, Donor 2, no effects with Donors 1 and 3): slight but consistent increase in cytolytic activity
cytolytic function of anti-CD19 CAR-expressing T cells (K562.CD19 target cells [5]; five days, three donors): limited effect on cytolytic function
expression of CD28 ([6]; CD4+ and CD8+ CAR-expressing T cells, day 28, three donors): decreased in a dose-dependent manner
PD-1 expression ([6]; both E:T ratios, day 4 and day 28): downregulated to some degree in all donors
CD25 and LAG3 expression ([6]; day 4): upregulated across all three donors
CCR7 expression ([6]; day 28): generally decreased at day 28
tumor burden and survival [7]: reduce tumor burden and improve survival data
expression of CD27 ([8]; all donors and E:T ratios): downregulated in a concentration-dependent manner
expression of CD45RO ([8]; all donors and E:T ratios): increased
expression of CD69 and LAG3 ([8]; cells derived from donor 3): increased in a concentration-dependent manner
cell counts of anti-CD19 CAR-expressing T cells ([9]; 10 nM and 100 nM Compound 1, after 24 days): higher than the untreated controls for two out of three donors
number of doublings of CAR+ cells ([9]; 500 nM Compound 1, rounds after 3-4 rounds of stimulation): lower than the untreated control groups
